ChEMBL document CHEMBL5252509, “In depth analysis of kinase cross screening data to identify chemical starting points for inhibition of the Nek family of kinases” (Medchemcomm, 2018)

What was measured:
[1] = target: T1, Serine/threonine-protein kinase Nek3 (Homo sapiens) (UniProt P51956); test: Inhibition of NEK3 (unknown origin) at 10 uM relative to control
T1 sequence (whole entry): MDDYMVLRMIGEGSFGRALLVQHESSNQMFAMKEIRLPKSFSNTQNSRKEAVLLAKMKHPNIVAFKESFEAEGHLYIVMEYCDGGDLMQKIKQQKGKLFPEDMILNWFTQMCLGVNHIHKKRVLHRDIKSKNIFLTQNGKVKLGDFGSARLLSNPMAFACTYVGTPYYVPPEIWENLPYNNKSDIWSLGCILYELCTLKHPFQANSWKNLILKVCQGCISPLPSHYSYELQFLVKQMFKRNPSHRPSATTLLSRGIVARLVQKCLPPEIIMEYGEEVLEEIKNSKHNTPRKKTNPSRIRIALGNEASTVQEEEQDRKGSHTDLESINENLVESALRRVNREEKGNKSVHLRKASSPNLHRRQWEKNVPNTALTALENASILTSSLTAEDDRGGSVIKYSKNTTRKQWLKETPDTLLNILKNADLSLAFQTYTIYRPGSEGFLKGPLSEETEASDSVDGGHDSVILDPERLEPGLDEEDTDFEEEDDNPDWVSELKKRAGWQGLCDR

[2] = target: T2, Serine/threonine-protein kinase Nek2 (Homo sapiens) (UniProt P51955); test: Inhibition of NEK2 (unknown origin) at 10 uM relative to control
T2 sequence (whole entry): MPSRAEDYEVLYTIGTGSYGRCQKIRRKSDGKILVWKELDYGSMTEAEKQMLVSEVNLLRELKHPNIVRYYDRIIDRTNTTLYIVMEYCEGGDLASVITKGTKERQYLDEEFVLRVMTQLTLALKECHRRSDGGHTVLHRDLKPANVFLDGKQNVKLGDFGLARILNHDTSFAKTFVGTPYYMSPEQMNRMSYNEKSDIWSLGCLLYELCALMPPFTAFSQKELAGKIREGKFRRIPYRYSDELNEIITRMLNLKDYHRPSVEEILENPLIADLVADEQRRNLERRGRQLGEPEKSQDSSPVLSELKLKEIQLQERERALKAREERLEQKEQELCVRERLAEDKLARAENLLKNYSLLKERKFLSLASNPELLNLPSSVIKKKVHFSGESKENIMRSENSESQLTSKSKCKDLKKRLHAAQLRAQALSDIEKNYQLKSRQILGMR

Cc1ccc(NC(=O)c2ccc(NC(=O)/C=C/CN(C)C)cc2)cc1Nc1nccc(-c2cccnc2)n1
% control [1]: 99%
% control [2]: 100%
